The source of these data is ChEMBL document CHEMBL1800012, “Optimisation of a novel series of selective CNS penetrant CB(2) agonists” (Bioorg Med Chem Lett, 2011).

For orientation: EC50 means the concentration that produces a half-maximal response. As a reminder, the Emax is the size of the effect at its maximum, as opposed to the concentration needed. Usually microsomal CLint stands for the capacity of the preparation to metabolise the compound, expressed as a volume cleared per time. A lower microsomal CLint goes with greater metabolic stability. A word on the Ki: it is the dissociation constant of the complex between target and ligand, obtained from inhibition or displacement. Lower therefore signals tighter binding. In general, bioavailability refers to dose-corrected exposure relative to a reference, in per cent. A high value points to much systemic uptake. In general, half-life refers to the time needed for the level to fall by half in the phase considered. A word on the Vd: it is a proportionality between amount in the body and measured concentration, not a real space. High values mean wide distribution into tissue, low ones little distribution into tissue. In general, clearance refers to the volume of plasma or blood freed of the substance per unit of time.

The target in data set [1] is T1, Cannabinoid receptor 2 (Homo sapiens, UniProt P34972). As to the kind of experiment: Agonist activity at human recombinant CB2 receptor expressed in CHO cells assessed as inhibition forskolin-induced cAMP release. The format is functional, cell-based.
For data set [2], the target named is T1, Cannabinoid receptor 2. As to the kind of experiment: Agonist activity at human recombinant CB2 receptor expressed in CHO cells assessed as inhibition forskolin-induced cAMP release relative to control. The format is functional, cell-based.
A short description of data set [3]: Intrinsic clearance in human liver microsomes. The format is ADME, Microsome.
Data set [4] in a line: Intrinsic clearance in rat liver microsomes. The format is ADME, Microsome.
Data set [5] has as its target T2, Cannabinoid receptor 1 (Homo sapiens, UniProt P21554). As to the kind of experiment: Binding affinity at human CB1 receptor.
Data set [6] in a line: Oral bioavailability in rat. Format: ADME, organism-based. The settings on record: in vivo.
Data set [7] is described as follows: Half life in rat at 1 mg/kg, iv. The format is ADME, organism-based. More on the design: dose 1 mg/kg, route intravenous. Particulars: in vivo.
Data set [8] deals with T2, Cannabinoid receptor 1. Briefly: Agonist activity at human CB1 receptor by functional assay.
Another data set is filed under the species Rattus norvegicus. As to the kind of experiment: Ratio of unbound drug level in brain to plasma in rat relative to control. Format: ADME, organism-based. Particulars: in vivo.
The nature of data set [9]: Volume of distribution in rat at 1 mg/kg, iv. Format: ADME, organism-based. Further details: dose 1 mg/kg, route intravenous. Particulars: in vivo.
Data set [10] is described as follows: Clearance in rat at 1 mg/kg, iv. Particulars: in vivo. Format: ADME, organism-based. Further details: dose 1 mg/kg, route intravenous.
Data set [11] can be described thus: Ratio of unbound drug level in brain to plasma in rat. The format is ADME, organism-based. Particulars: brain and plasma, read-out: BPR.

T2 sequence (P21554 whole entry): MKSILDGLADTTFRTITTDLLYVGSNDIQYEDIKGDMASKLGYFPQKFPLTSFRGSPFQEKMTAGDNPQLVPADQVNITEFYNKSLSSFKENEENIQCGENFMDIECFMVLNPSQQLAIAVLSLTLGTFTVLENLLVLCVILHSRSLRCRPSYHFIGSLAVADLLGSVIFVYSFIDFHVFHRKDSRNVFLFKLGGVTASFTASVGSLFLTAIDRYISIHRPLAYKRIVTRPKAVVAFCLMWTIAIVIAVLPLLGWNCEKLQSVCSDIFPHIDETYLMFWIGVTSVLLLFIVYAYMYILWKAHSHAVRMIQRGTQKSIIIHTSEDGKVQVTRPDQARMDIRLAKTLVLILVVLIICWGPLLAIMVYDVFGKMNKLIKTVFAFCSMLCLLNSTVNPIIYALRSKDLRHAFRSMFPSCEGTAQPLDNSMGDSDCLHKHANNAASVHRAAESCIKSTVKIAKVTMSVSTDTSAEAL
T1 sequence (P34972 whole entry): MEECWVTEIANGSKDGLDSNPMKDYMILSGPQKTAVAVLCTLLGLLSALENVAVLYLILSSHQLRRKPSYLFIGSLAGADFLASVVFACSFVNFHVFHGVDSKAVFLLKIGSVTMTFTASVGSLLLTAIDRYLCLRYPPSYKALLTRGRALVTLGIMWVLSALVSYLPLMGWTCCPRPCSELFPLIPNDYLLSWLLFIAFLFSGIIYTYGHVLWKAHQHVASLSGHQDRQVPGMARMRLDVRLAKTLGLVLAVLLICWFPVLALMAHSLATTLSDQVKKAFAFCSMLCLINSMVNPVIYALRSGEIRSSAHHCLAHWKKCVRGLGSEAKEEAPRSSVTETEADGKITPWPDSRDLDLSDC

Regarding `CCS(=O)(=O)c1ccc2c(c1)nc(CC1CC1)n2CC1CC1`, at Cannabinoid receptor 2 [1], the EC50 was 425 nM. Besides, the maximum response (Emax) at Cannabinoid receptor 2 [2] amounted to 79%.

As to `CCS(=O)(=O)c1ccc2c(c1)nc(C1CCC1)n2CC1CC1`, the intrinsic metabolic clearance (microsomal CLint) in [3] stood at 8 µL/min/mg; in data set [4], 33 µL/min/mg. Besides, the half-maximal effective concentration (EC50) at Cannabinoid receptor 2 [1] came to 82 nM.

For the molecule `CC(C)(C)Cc1nc2cc(S(=O)(=O)CC(C)(C)O)ccc2n1CC1CC1`, the figures for the intrinsic clearance (microsomal CLint) in data set [3] and in data set [4] were less than 7 µL/min/mg and 244 µL/min/mg, respectively. Moreover, at Cannabinoid receptor 2 [1], the 50% effective concentration (EC50) came to 3.1 nM.

As for `CC(C)(C)Cc1nc2cc(S(=O)(=O)Cc3ccccc3)ccc2n1CC1CC1`, the results for the microsomal CLint in data set [3] and in data set [4] were 276 µL/min/mg and 369 µL/min/mg, respectively. The EC50 on Cannabinoid receptor 2 [1] is 6.5 nM.

As for `CCCc1nc2cc(S(=O)(=O)CC)ccc2n1CC1CC1`, the microsomal CLint in data set [3] came to 43 µL/min/mg; in [4], 34 µL/min/mg. At Cannabinoid receptor 2 [1], the concentration for a half-maximal effect (EC50) was 199 nM.

In the case of `CN(C)CCS(=O)(=O)c1ccc2c(c1)nc(CC(C)(C)C)n2CC1CC1`, the microsomal CLint turned out to be 79 µL/min/mg in [3] and 170 µL/min/mg in data set [4]. In addition, the concentration for a half-maximal effect (EC50) on Cannabinoid receptor 2 [1] is 32 nM.

In the case of `CC(C)(C)Cc1nc2cc(S(=O)(=O)C(C)(C)C)ccc2n1CC1CC1`, the microsomal CLint in data set [3] is 38 µL/min/mg. In addition, the 50% effective concentration (EC50) at Cannabinoid receptor 2 [1] came out at 0.43 nM.

For `CC(C)(C)Cc1nc2cc(S(=O)(=O)C(C)(C)CO)ccc2n1CC1CC1`, the values for the microsomal CLint in data set [3] and in data set [4] were less than 7 µL/min/mg and 54 µL/min/mg, respectively. Also, the EC50 on Cannabinoid receptor 2 [1] was determined as 1.2 nM.

Regarding `CC(C)S(=O)(=O)c1ccc2c(c1)nc(CC(C)(C)C)n2CC1CC1`, the Ki on Cannabinoid receptor 1 [5] is greater than 10000 nM. The results for the intrinsic metabolic clearance (microsomal CLint) in [3] and in data set [4] were 23 µL/min/mg and 144 µL/min/mg, respectively. In addition, on Cannabinoid receptor 2 [1], the EC50 was 3.2 nM.

Consider `CCS(=O)(=O)c1ccc2c(c1)nc(CCC(C)C)n2CC1CC1`, for which the EC50 on Cannabinoid receptor 2 [1] is 67 nM. The Emax on Cannabinoid receptor 2 [2] is 58%.

On to `CCS(=O)(=O)c1ccc2c(c1)nc(C(C)(C)C)n2CC1CC1`, for which the Ki on Cannabinoid receptor 1 [5] is greater than 20000 nM. The microsomal CLint in [3] was determined as 9 µL/min/mg; in data set [4], 12 µL/min/mg. In [6], this molecule yielded a bioavailability of 100%. The EC50 is 2.7 nM at Cannabinoid receptor 2 [1] and greater than 10 nM on Cannabinoid receptor 1 [8]. In data set [7], this molecule gave a half-life of 1.9 h. In addition, in the data set listed under Rattus norvegicus, the BPR turned out to be 30. In addition, the distribution volume (Vd) in data set [9] stood at 3.2 L/kg. This molecule came in with a clearance in [10] of 20 mL/min/kg.

With `CCS(=O)(=O)c1ccc2c(c1)nc(C(C)(C)C)n2C1CC1`, the figures for the intrinsic metabolic clearance (microsomal CLint) in [3] and in [4] were 8 µL/min/mg and 8.5 µL/min/mg, respectively. Moreover, the EC50 at Cannabinoid receptor 2 [1] was 106 nM.

Consider `CCS(=O)(=O)c1ccc2c(c1)nc(C1(C)CC1)n2CC1CC1`, for which the intrinsic clearance (microsomal CLint) in [3] is 8 µL/min/mg; in [4] it was 11 µL/min/mg. The EC50 on Cannabinoid receptor 2 [1] was determined as 51 nM.

As to `CCS(=O)(=O)c1ccc2c(c1)nc(C1(C)CCCC1)n2CC1CC1`, the microsomal CLint in data set [3] was 42 µL/min/mg; in data set [4], 106 µL/min/mg. The concentration for a half-maximal effect (EC50) on Cannabinoid receptor 2 [1] was 9.6 nM.

For `CCS(=O)(=O)c1ccc2c(c1)nc(C1CCCC1)n2CC1CC1`, the microsomal CLint came out at 11 µL/min/mg in data set [3] and 106 µL/min/mg in data set [4]. Also, on Cannabinoid receptor 2 [1], the EC50 turned out to be 25 nM.

`CCS(=O)(=O)c1ccc2c(c1)nc(C(C)C)n2CC1CC1`: the EC50 at Cannabinoid receptor 2 [1] was 132 nM.

Turning to `CCS(=O)(=O)c1ccc2c(c1)nc(C(C)(C)C)n2C[C@@H]1CCCO1`, the figures for the microsomal CLint in data set [3] and in [4] were 12 µL/min/mg and 17 µL/min/mg, respectively. In addition, the half-maximal effective concentration (EC50) at Cannabinoid receptor 2 [1] is 11 nM. Besides, in data set [11], the Kp uu is 1. Besides, the half-life in [7] is 0.4 h. In addition, the Vd in data set [9] is 1 L/kg. In data set [10], this molecule came in with a clearance of 27.1 mL/min/kg.

On Cannabinoid receptor 1 [5], `CN(C)CCn1c(CC(C)(C)C)nc2cc(S(=O)(=O)CC(C)(C)O)ccc21` returned an inhibition constant (Ki) greater than 19400 nM. The microsomal CLint in data set [3] was less than 7 µL/min/mg; in data set [4], less than 11.2 µL/min/mg. This molecule had a bioavailability in data set [6] of 21%. Moreover, the 50% effective concentration (EC50) at Cannabinoid receptor 2 [1] amounted to 12 nM. Besides, the BPR in the data set listed under Rattus norvegicus is given as less than 1%.

Consider `CCS(=O)(=O)c1ccc2c(c1)nc(C(C)(C)C)n2CCN(C)C`, for which the intrinsic clearance (microsomal CLint) is 8 µL/min/mg in data set [3] and 8.5 µL/min/mg in data set [4]. Also, on Cannabinoid receptor 2 [1], the EC50 stood at 39 nM.

Take `CCS(=O)(=O)c1ccc2c(c1)nc(CC(C)(C)C)n2CC1CC1`: the intrinsic metabolic clearance (microsomal CLint) in data set [3] was found to be 8.4 µL/min/mg; in data set [4], 38 µL/min/mg. At Cannabinoid receptor 2 [1], the concentration giving a half-maximal response (EC50) was found to be 2.9 nM.

Turning to `CCS(=O)(=O)c1ccc2c(c1)nc(C(C)(C)C)n2CCOC(F)(F)F`, the microsomal CLint in data set [3] was 7 µL/min/mg; in data set [4] it was 19 µL/min/mg. Besides, the EC50 at Cannabinoid receptor 2 [1] came out at 5.3 nM.
